pIC50: −log10 of the molar value. Where two headings read alike, the source gives them in different places.
How the values were obtained:
[1] = system: VLDL secretion in vivo in rats; experiment: Measurement of blood cholesterol and triglyceride in rats (VLDL secretion, Triton WR-1339); conditions: male SD rats, oral, Triton WR-1339 400 mg/kg i.v. after 1 hour, blood after 4 hours; for ED50: Rattus norvegicus
Procedure: 2. Measurement of Blood Cholesterol and Triglyceride in Rats
The influence of test compounds on VLDL secretion in vivo in rats was investigated. A 0.5% methyl cellulose suspension containing a test compound was orally administered to male SD rats. After 1 hour, a physiological saline solution of Triton WR-1339 (corresponding to 400 mg/kg) was injected through the caudal vein. After 4 hours, their blood was collected under anesthetization with diethyl ether. The total cholesterol and triglyceride in blood were measured by the use of “Cholesterol C Test Wako” and “Triglyceride G Test Wako” (both from Wako Pure Chemical Industries), respectively. The rats orally administered with the 0.5% methyl cellulose solution and then intravenously injected with physiological saline were used as a normal group, and those orally administered with the 0.5% methyl cellulose solution and then intravenously injected with physiological saline of Triton WR-1339 were used as a control group. The difference in the total cholesterol (TC) or triglyceride (TG) in the serum between the control group and the normal group was defined as the amount of secretion per hour, and the lowering effect in the amount of secretion of the test compound was represented by ED50.

[2] = system: plasma lipid in KK-Ay mice; experiment: Pharmacological test in KK-Ay mice; type: in vivo, male KK-Ay mice; conditions: oral once a day for 7 days, relative to control group
Procedure: The influence of test compounds on plasma lipid in vivo was investigated with KK-Ay mice. A 0.5% methyl cellulose suspension containing a test compound was forcedly orally administered to male KK-Ay mice once a day for continuos 7 days. After the final administration, the mice were fed with nothing, and after 6 hours, their blood was collected under anesthetization with diethyl ether. Using the automatic analyzer, Hitachi's Model 7250, the total cholesterol, HDL cholesterol and triglyceride in plasma were measured. Non-HDL cholesterol was obtained by subtracting HDL cholesterol from total cholesterol. The plasma lipid lowering effect of the test compound was expressed in percentage relative to the control group.

[3] = system: plasma lipid in high-cholesterol feed-loaded rats; experiment: Pharmacological test on high-cholesterol feed-loaded rats; type: in vivo; conditions: high-cholesterol feed-loaded male SD rats, oral once a day for 7 days, relative to control group; for ED50: Rattus norvegicus, 168 h, read-out: ED50 non-HDL cholesterol lowering effect
Procedure: 3. Pharmacological Test on High-Cholesterol Feed-Loaded Rats
The influence of test compounds on plasma lipid in vivo was investigated with high-cholesterol feed-loaded rats. A 0.5% methyl cellulose suspension containing a test compound was forcedly orally administered to male SD rats loaded with high-cholesterol feed (1.5% cholesterol, 10% coconut oil, 0.5% cholic acid), once a day for continuous 7 days. After the final administration, the rats were fed with nothing, and after 6 hours, their blood was collected under anesthetization with diethyl ether. Using an automatic analyzer, Hitachi's Model 7250, the total cholesterol, HDL cholesterol and triglyceride in plasma were measured. Non-HDL cholesterol was obtained by subtracting HDL cholesterol from total cholesterol. The non-HDL cholesterol lowering effect of the test compound, relative to the control group, was represented by ED50.

[4] = system: apo B-related lipoprotein secretion in Hep G2 cells; experiment: Measurement of apo B-related lipoprotein secretion in liver cells (Hep G2, enzyme immunoassay); type: cell-based, human; conditions: culture supernatant
Procedure: 1. Measurement of Apo B-Related Lipoprotein Secretion in Liver Cells
Hep G2 cells were cultured in a 96-well plate using a 10% fetal bovine serum-containing Dulbecco's modified Eagle's medium (to be referred to as “10% FBS-containing DMEM” hereinafter). The medium was exchanged with a 10% FBS-containing DMEM that contained a DMSO solution of the test compound (DMSO final concentration 0.1%), and the cells were further incubated therein for 18 hours to obtain the culture supernatant. The culture supernatant obtained from a 10% FBS-containing DMEM that contained DMSO alone (final concentration 0.1%) was used as the control. The apo B-related lipoprotein produced in the culture supernatant was determined through an enzyme immunoassay in the manner mentioned below.
A solution of anti-human apolipoprotein B monoclonal antibody (4 μg/ml) was dispensed in 100 μl portions into a 96-well immunoassay plate and kept at 4° C. for 18 hours. Each well was washed three times with a phosphate buffer to which had been added 0.1% Tween 20 (to be referred to as “PBS-T” hereinafter), and 300 μl of a 4-fold diluted immune blocker “Block Ace” was added thereto and kept at 37° C. for 1 hour. The aforementioned culture supernatant was added to it, and kept at 37° C. for 3 hours. This was washed three times with PBS-T, and then 100 μl of a solution of caprine anti-human apolipoprotein B polyclonal antibody (2,000-fold dilution) was added to it and kept at 37° C. for 1 hour. This was washed three times with PBS-T, and then 100 μl of a solution of alkaline phosphatase-labeled anti-caprine IgG antibody (2,000-fold dilution) was added thereto and kept at 37° C. for 1 hour. This was washed four times with PBS-T, once with PBS and then with a carbonate buffer (pH 9.5), and 100 μl of a solution of an alkaline phosphatase substrate was added thereto and kept at room temperature for 5 minutes. A 50 μl portion of 0.2 M sodium hydroxide was added to it to stop the reaction, and the absorbance at 405 nm was measured. From the calibration curve based on a standard, human low-density lipoprotein, the absolute amount of apo B-related lipoprotein was obtained.

[5] = read-out: ED50 TC (total cholesterol secretion lowering effect)
[6] = read-out: ED50 TG (triglyceride secretion lowering effect)
[7] = Homo sapiens, HepG2, 18 hours incubation

| pIC50 [4, 7] | SMILES | ED50 TC (total cholesterol secretion lowering effect) [1] | ED50 TG (triglyceride secretion lowering effect) [1] | Lowering rate TG ([2]; dose 3 mg/kg) | Lowering rate non-HDL ([2]; dose 3 mg/kg) | ED50 non-HDL cholesterol lowering effect [3] | ED50 [1, 5] | ED50 [1, 6] | pIC50 ([4]; 18 hours incubation) | ED50 [3] | Lowering rate TG ([2]; dose 10 mg/kg) | Lowering rate non-HDL ([2]; dose 10 mg/kg) |
| --- | --- | --- | --- | --- | --- | --- | --- | --- | --- | --- | --- | --- |
|  | Cc1nc2c(c(C)c1CCC(=O)O)c1cc(F)ccc1n2Cc1ccc([C@@H](C(=O)NCc2ccccc2)C2CCOCC2)cc1 [Example 23] | 0.27 mg/kg | 0.19 mg/kg | 96% | 91% | 0.063 mg/kg |  |  |  |  |  |  |
| 7.54 | Cc1nc2c(c(C)c1CCC(=O)O)c1ccccc1n2Cc1ccc([C@@H](C(=O)N(C)C)C2CCOCC2)cc1 [Example 37, 3-(2,4-dimethyl-9-{4-[(S)-(dimethylcarbamoyl)(tetrahydro-2H-pyran-4-yl)methyl]benzyl}-9H-pyrido[2,3-b]indol-3-yl)propanoic acid] |  |  | 57% | 62% |  | 0.71 mg/kg | 0.71 mg/kg |  |  |  |  |
|  | COCCCN1CCN(C(=O)[C@H](c2ccc(Cn3c4ccccc4c4c(C)c(CCC(=O)O)c(C)nc43)cc2)C2CCOCC2)CC1 [Example 56] | 0.9 mg/kg | 1.3 mg/kg | 41% | 63% | 1.1 mg/kg |  |  | 8.14 |  |  |  |
|  | CCCCCN1CCN(C(=O)[C@H](c2ccc(Cn3c4ccccc4c4c(C)c(CCC(=O)O)c(C)nc43)cc2)C2CCOCC2)CC1 [Example 50] | 0.48 mg/kg | 0.41 mg/kg | 94% | 90% | 0.19 mg/kg |  |  | 8.49 |  |  |  |
|  | Cc1nc2c(c(C)c1CCC(=O)O)c1ccccc1n2Cc1ccc([C@@H](C(=O)N2CC=CCC2)C2CCOCC2)cc1 [Example 40] | 0.47 mg/kg | 0.28 mg/kg | 81% | 74% | <0.1 mg/kg |  |  | 7.92 |  |  |  |
| 8.52 | CCCN1CCN(C(=O)[C@H](c2ccc(Cn3c4ccccc4c4c(C)c(CCC(=O)O)c(C)nc43)cc2)C2CCOCC2)CC1 [Example 18, (+)-3-(2,4-Dimethyl-9-{4-[(S)-2-oxo-2-(4-propylpiperazin-1-yl)-1-(tetrahydro-2H-pyran-4-yl)ethyl]benzyl}-9H-pyrido[2,3-b]indol-3-yl)propanoic acid] |  |  | 87% | 85% |  | 0.5 mg/kg | 0.52 mg/kg |  | 0.2 mg/kg |  |  |
|  | Cc1nc2c(c(C)c1CCC(=O)O)c1ccccc1n2Cc1ccc([C@@H](C(=O)N2CCN(C3CCC3)CC2)C2CCOCC2)cc1 [Example 57] | 0.74 mg/kg | 0.56 mg/kg | 89% | 86% | 0.88 mg/kg |  |  | 8.10 |  |  |  |
| 8.32 | Cc1nc2c(c(C)c1CCC(=O)O)c1ccccc1n2Cc1ccc([C@@H](C(=O)N2CCN(c3ccccn3)CC2)C2CCOCC2)cc1 [Example 17, (−)-3-(2,4-Dimethyl-9-{4-[(S)-2-oxo-2-(4-pyridin-2-ylpiperazin-1-yl)-1-(tetrahydro-2H-pyran-4-yl)ethyl]benzyl}-9H-pyrido[2,3-b]indol-3-yl)propanoic acid] |  |  | 86% | 85% |  | 0.74 mg/kg | 0.39 mg/kg |  | 0.14 mg/kg |  |  |
|  | Cc1cc(C)c2c3ccccc3n(Cc3ccc([C@@H](C(=O)N[C@@H](CO)c4ccccc4)C4CCCC4)cc3)c2n1 [Implitapide, reference compound] | 1.0 mg/kg | 1.1 mg/kg |  |  | 1.0 mg/kg |  |  |  |  | 15% | 14% |
|  | Cc1nc2c(c(C)c1CCC(=O)O)c1ccccc1n2Cc1ccc([C@@H](C(=O)NCc2cccc(F)c2)C2CCOCC2)cc1 [Example 117] |  |  | 98% | 98% | 0.032 mg/kg |  |  | 8.66 |  |  |  |
| 8.77 | Cc1nc2c(c(C)c1CCC(=O)O)c1ccccc1n2Cc1ccc([C@@H](C(=O)NCc2ccccc2)C2CCOCC2)cc1 [Example 19, (−)-3-(9-{4-[(S)-(benzylcarbamoyl)(tetrahydro-2H-pyran-4-yl)methyl]benzyl}-2,4-dimethyl-9H-pyrido[2,3-b]indol-3-yl)propanoic acid] |  |  | 91% | 95% |  | 0.17 mg/kg | 0.24 mg/kg |  | 0.059 mg/kg |  |  |
|  | Cc1nc2c(c(C)c1CCC(=O)O)c1ccccc1n2Cc1ccc([C@@H](C(=O)N2CCC(c3ccccc3)CC2)C2CCOCC2)cc1 [Example 45] |  |  | 92% | 86% | 0.41 mg/kg |  |  | 7.55 |  |  |  |
|  | Cc1nc2c(c(C)c1CCC(=O)O)c1ccc(F)cc1n2Cc1ccc([C@@H](C(=O)NCc2ccccc2)C2CCOCC2)cc1 [Example 24] | 0.21 mg/kg | 0.22 mg/kg | 95% | 96% | 0.040 mg/kg |  |  |  |  |  |  |

— patent US20050239780A1, “Tetrahydropyran derivative” (priority 2002, published 2005)
